# Source: patent US6444668B1 (Wyeth, priority 1999, dated 2002)
row,SMILES,melting point [°C]
1,"CCCc1cc(C#N)sc1-c1ccc2c(c1)C(C)(C)OC(=O)N2 [Example 112, 5-(4,4-Dimethyl-2-oxo-1,4-dihydro-2H-benzo[d][1,3]oxazin-6-yl)4-n-propyl-thiophene-2-carbonitrile]",160 to 162
2,"CCCCc1cc(C#N)sc1-c1ccc2c(c1)C(C)(C)OC(=O)N2 [Example 113, 5-(4,4-Dimethyl-2-oxo-1,4-dihydro-2H-benzo[d][1,3]oxazin-6-yl)4-n-butyl-thiophene-2-carbonitrile]",167 to 168
3,"CC1(C)OC(=O)Nc2c(Br)cc(-c3ccc(F)c(Cl)c3)cc21 [Example 123, 8-Bromo-6-(3-chloro-4-fluorophenyl)-4,4-dimethyl-1,4-dihydro-2H-3,1-benzoxazin-2-one]",194 to 195
4,"CC1(C)OC(=O)Nc2c(Br)cc(-c3cc(F)cc(C#N)c3)cc21 [Example 124, 3-(8Bromo-4,4-dimethyl-2-oxo-1,4-dihydro-2H-3,1-benzoxazin-6-yl)-5-fluorobenzonitrile]",216 to 217
5,"CC1(C)OC(=O)Nc2c(Br)cc(-c3ccc(F)c(C#N)c3)cc21 [Example 125, 5-(8-Bromo-4,4-dimethyl-2-oxo-1,4-dihydro-2H-3,1-benzoxazin-6-yl)-2-fluorobenzonitrile]",235 to 236
6,"CN1C(=O)OC(C)(C)c2cc(-c3cccc(Br)c3)ccc21 [Example 126, 6-(3-Bromophenyl)-1,4,4-trimethyl-1,4-dihydro-2H-3,1-benzoxazin-2-one]",142 to 143
7,"COc1cc(-c2cc(F)cc(C#N)c2)cc2c1NC(=O)OC2(C)C [Example 128, 3-(4,4-Dimethyl-8-methoxy-2-oxo-1,4-dihydro-2H-3,1-benzoxazin-6-yl)-5-fluorobenzonitrile]",252 to 253

# The remaining lines, values ahead:
row,melting point [°C],SMILES
1,245 to 247,"N#Cc1cccc(-c2ccc3c(c2)C2(CCCCC2)OC(=O)N3)c1 [Example 106, 3-(1,2-Dihydro-2-oxospiro[4H-3,1-benzoxazine-4,1-cyclohexan]-6-yl)-benzonitrile]"
2,250 to 253,"N#Cc1cc(F)cc(-c2ccc3c(c2)C2(CCCCC2)OC(=O)N3)c1 [Example 107, 3-(1,2-Dihydro-2-oxospiro[4H-3,1-benzoxazine-4,1-cyclohexan]-6-yl)-5-fluorobenzonitrile]"
3,230 to 232,"N#Cc1cc(-c2ccc3c(c2)C2(CCCCC2)OC(=O)N3)cs1 [Example 108, 4-(1,2-Dihydro-2-oxospiro[4H-3,1-benzoxazine-4,1-cyclohexan]-6-yl)2-thiophenecarbonitrile]"
4,160 to 162,"CCc1cc(C#N)sc1-c1ccc2c(c1)C(C)(C)OC(=O)N2 [Example 111, 5(4,4-Dimethyl-2-oxo-1,4-dihydro-2H-benzo[d][1,3]oxazin-6-yl)-4-ethyl-thiophene-2-carbonitrile]"
5,188 to 190,"CC1(C)OC(=O)Nc2ccc(-c3cccc(CC#N)c3)cc21 [Example 118, 3-(4,4Dimethyl-2-oxo-1,4-dihydro-2H-benzo[d][1,3]-oxazin-6-yl)phenylacetonitrile]"
6,257 to 260,"CC1(C)OC(=O)Nc2ccc(-c3ccc(C#N)o3)cc21 [Example 119, 5-(4,4Dimethyl-2-oxo-1,4-dihydro-2H-benzo[d][1,3]oxazin-6-yl)-furan-2-carbonitrile]"
7,192 to 198,"CC1(C)OC(=O)Nc2ccc(-c3cccc(C#N)c3F)cc21 [Example 120, 3-(4,4-Dimethyl-2-oxo-1,4-dihydro-2H-benzo[d][1,3]oxazin-6-yl)-2fluoro-benzonitrile]"
8,145 to 146,"COc1cccc(-c2ccc3c(c2)C2(CCC2)OC(=O)N3)c1 [Example 122, 6-(3-Methoxyphenyl)spiro[4H-3,1-benzoxazine-4,1-cyclobutan]-2(1H)-one]"
9,160 to 161,"CC1OC(=O)Nc2ccc(-c3cccc(F)c3)cc21 (stereo not shown) [Example 127, 6-(3-Fluorophenyl)-4-methyl-1,4-dihydro-2H-3,1-benzoxazin-2-one]"
